The values that follow come from paper PMC10353189, “Hybridization of the effective pharmacophores for treatment of epilepsy: design, synthesis, in vivo anticonvulsant activity, and in silico studies of phenoxyphenyl-1,3,4-oxadiazole-thio-N-phenylacetamid hybrids” (BMC Chemistry, 2023).

The subject of test [1] is PTZ-induced lethal convulsion in mice. The test is described as follows: Pentylenetetrazole (PTZ) induced seizure test. Particulars: Mus musculus; for responders at 2 mg/kg: dose 2 mg/kg ip; for responders at 1 mg/kg: dose 1 mg/kg ip. The format is in vivo, Male NMRI mice.
Test [2] deals with MES-induced seizure in mice. Nature of the test: Maximal electroshock (MES) induced seizure test. The format is in vivo, Male NMRI mice. Particulars: for responders at 2 mg/kg / responders at 5 mg/kg / responders at 10 mg/kg / responders at 1 mg/kg / responders at 50 mg/kg: Mus musculus; for responders at 5 mg/kg: dose 5 mg/kg ip; for responders at 10 mg/kg: dose 10 mg/kg ip; for responders at 1 mg/kg: dose 1 mg/kg ip; for responders at 50 mg/kg: dose 50 mg/kg ip. Background: The maximal electroshock test induces tonic seizures with an electrical stimulus.

The mark [3] stands for this setting: 30 min before PTZ 100 mg/kg ip, read-out: PTZ Number of animals protected / Number of tested animals.
The mark [4] stands for this setting: PTZ 100 mg/kg ip, read-out: PTZ %Protection.
Where [5] appears, read: dose 2 mg/kg ip, MES 50 mA, 60 Hz, 0.2 s, read-out: MES Number of animals protected / Number of tested animals (converted).
Setting [6] is: dose 2 mg/kg ip, read-out: MES %Protection.
Setting [7] is: MES 50 mA, 60 Hz, 0.2 s, read-out: MES Number of animals protected / Number of tested animals (converted).

Where two headings read alike, the source gives them in different places.

On to `O=C(CSc1nnc(-c2ccccc2Oc2ccccc2)o1)Nc1ccccc1[N+](=O)[O-]` [Compound 8k, N-(2-nitrophenyl)-2-((5-(2-phenoxyphenyl)-1,3,4-oxadiazol-2-yl)thio)acetamide], for which the responders at 2 mg/kg is 0% in test [1] (setting [3]), 0% in test [1] (setting [4]), 75% in test [2] (setting [5]) and 75% in test [2] (setting [6]). Moreover, the responders at 5 mg/kg in test [2] (setting [7]) and in test [2] (read-out: MES %Protection) was 75% in each case. The responders at 10 mg/kg in test [2] (setting [7]) and in test [2] (read-out: MES %Protection) was 50% throughout. Also, in test [2] (dose 2 mg/kg ip, with flumazenil 1 mg/kg ip 15 min before seizure induction), the “MES Number of animals protected / Number of tested animals” value is recorded as 0/4.

Turning to `Cc1c(NC(=O)CSc2nnc(-c3ccccc3Oc3ccccc3)o2)cccc1[N+](=O)[O-]` [Compound 8m, N-(2-methyl-3-nitrophenyl)-2-((5-(2-phenoxyphenyl)-1,3,4-oxadiazol-2-yl)thio)acetamide], the responders at 1 mg/kg in test [1] (setting [3]) is 0%; in test [1] (setting [4]), 0%; in test [2] (setting [7]) it was 25%; in test [2] (read-out: MES %Protection), 25%. For the same compound, the responders at 2 mg/kg in test [2] (setting [5]) and in test [2] (setting [6]) was 50% each time. For the same compound, the responders at 10 mg/kg in test [2] (setting [7]) and in test [2] (read-out: MES %Protection) was 0% each time. Further, the responders at 50 mg/kg in test [2] (MES 50 mA, 60 Hz, 0.2 s, read-out: MES Number of animals protected / Number of tested animals) came to 0%; in test [2] (read-out: MES %Protection), 0%.
